From PMC10895371, “Phosphorylation of the alpha-I motif in SYMRK drives root nodule organogenesis” (Proceedings of the National Academy of Sciences of the …, 2024)

Experiments:
[1] = target: T1, SYMRK (intracellular domain; SYMRK-WT) (Lotus japonicus, UniProt Q8LKX1, S877D/S885D/S889D/S893D); test: nanoDSF thermal stability, […] nm fluorescence; assay type: binding; conditions: 1 mM ATP, 5 mM MgCl2, pH 7.5, 15 min on ice, 25 to 95 °C at 1 °C/min
T1 construct: intracellular kinase region with C-terminal alpha-I motif (intracellular domain modelled as 545-923); E. coli Rosetta 2, pAH10R7Sumo3C, tag cut with 3C, lambda-phosphatase dephosphorylated
T1 sequence (Q8LKX1 entry or part of it S877D/S885D/S889D/S893D): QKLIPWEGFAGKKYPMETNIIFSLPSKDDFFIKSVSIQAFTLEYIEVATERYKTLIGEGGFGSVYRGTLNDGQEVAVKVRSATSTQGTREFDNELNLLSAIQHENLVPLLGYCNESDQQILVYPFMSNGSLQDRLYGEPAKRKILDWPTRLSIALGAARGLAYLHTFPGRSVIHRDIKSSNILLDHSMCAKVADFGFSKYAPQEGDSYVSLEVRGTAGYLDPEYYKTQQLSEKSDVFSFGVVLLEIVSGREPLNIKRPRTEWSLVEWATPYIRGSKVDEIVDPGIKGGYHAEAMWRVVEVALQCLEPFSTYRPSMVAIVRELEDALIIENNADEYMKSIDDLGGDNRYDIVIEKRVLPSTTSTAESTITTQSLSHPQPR

[2] = target: T2, SYMRK (intracellular domain; SYMRK-WT) (Lotus japonicus, UniProt Q8LKX1, S877A/S885A/S889A/S893A); test: nanoDSF thermal stability, […] nm fluorescence; assay type: binding; conditions: 1 mM ATP, 5 mM MgCl2, pH 7.5, 15 min on ice, 25 to 95 °C at 1 °C/min
T2 construct: intracellular kinase region with C-terminal alpha-I motif (intracellular domain modelled as 545-923); E. coli Rosetta 2, pAH10R7Sumo3C, tag cut with 3C, lambda-phosphatase dephosphorylated
T2 sequence (Q8LKX1 entry or part of it S877A/S885A/S889A/S893A): as the sequence (Q8LKX1 entry or part of it S877D/S885D/S889D/S893D) above, with D333A, D341A, D345A, D349A counted along it

[3] = target: T3, SYMRK (intracellular domain; SYMRK-WT) (Lotus japonicus, UniProt Q8LKX1); test: nanoDSF thermal stability, […] nm fluorescence; assay type: binding; conditions: 1 mM ATP, 5 mM MgCl2, pH 7.5, 15 min on ice, 25 to 95 °C at 1 °C/min
T3 construct: intracellular kinase region with C-terminal alpha-I motif (intracellular domain modelled as 545-923); E. coli Rosetta 2, pAH10R7Sumo3C, tag cut with 3C, lambda-phosphatase dephosphorylated
T3 sequence (Q8LKX1 545-923 limits assumed): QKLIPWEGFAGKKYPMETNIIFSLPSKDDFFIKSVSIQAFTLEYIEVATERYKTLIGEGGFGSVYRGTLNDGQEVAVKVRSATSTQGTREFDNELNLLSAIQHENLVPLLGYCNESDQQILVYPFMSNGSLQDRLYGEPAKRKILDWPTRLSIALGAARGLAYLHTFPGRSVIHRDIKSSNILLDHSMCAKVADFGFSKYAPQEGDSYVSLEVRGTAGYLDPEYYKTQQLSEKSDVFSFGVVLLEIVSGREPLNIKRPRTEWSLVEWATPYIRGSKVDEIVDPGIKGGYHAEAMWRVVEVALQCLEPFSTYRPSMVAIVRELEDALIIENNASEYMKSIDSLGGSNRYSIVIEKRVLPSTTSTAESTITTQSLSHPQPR

[4] = target: T3, SYMRK (intracellular domain; SYMRK-WT); test: radioactive kinase assay, SDS-PAGE autoradiography; assay type: biochemical; conditions: labelled compound; 100 nCi, 5 mM MgCl2, MBP co-substrate and autophosphorylation, pH 7.5, room temperature, 1 h
[5] = target: T2, SYMRK (intracellular domain; SYMRK-WT); test: radioactive kinase assay, SDS-PAGE autoradiography; assay type: biochemical; conditions: labelled compound; 100 nCi, 5 mM MgCl2, MBP co-substrate and autophosphorylation, pH 7.5, room temperature, 1 h

Row | SMILES | thermal stabilization [1] | thermal stabilization [2] | thermal stabilization [3] | radioactive kinase assay, SDS-PAGE autoradiography [4] | radioactive kinase assay, SDS-PAGE autoradiography [5]
1 | Nc1ncnc2c1ncn2[C@@H]1O[C@H](COP(=O)(O)OP(=O)(O)OP(=O)(O)O)[C@@H](O)[C@H]1O [ATP] | we purified SYMRK-4D and found it to be monodisperse, thermostable, ATP binding, and catalytically active | all proteins except the catalytically inactive SYMRK-K622E control showed ATP-binding capacity | all proteins except the catalytically inactive SYMRK-K622E control showed ATP-binding capacity | – | –
2 | Nc1ncnc2c1ncn2[C@@H]1O[C@H](COP(=O)(O)OP(=O)(O)OP(=O)(O)O)[C@@H](O)[C@H]1O [γ-32P-labeled ATP] | – | – | – | SYMRK-4A and SYMRK-WT are active kinases capable of both autophosphorylation and transphosphorylation | SYMRK-4A and SYMRK-WT are active kinases capable of both autophosphorylation and transphosphorylation
